Experiments:
S. aureus Newbould 305 [1] = assay: Turbidity reduction assay; type: cell-based; settings: 1 μM enzyme, cells at OD600nm 1.0, FIG. 6a
Procedure: (§1) FIG. 6a depicts the specific activity of peptidoglycan hydrolase fusion constructs in vitro in a turbidity reduction assay with S. aureus Newbould 305 resuspended in lysis buffer to an OD600nm of 1.0 and treated with 1 μM final concentrations of each peptidoglycan hydrolase. The maximum specific activity for three experiments are represented as an average with SEM error bars. FIG. 6b depicts the bacterial burden in mice with mastitis treated with recombinant peptidoglycan hydrolases. Colony Forming Units (CFUs) from infected murine mammary glands following a single treatment with 50 μl of 25 μM peptidoglycan hydrolase (1.25 nmol). Each data point represents the average of duplicate bacterial platings. The horizontal bars represent the average CFU/mg for each group. FIG. 6c illustrates the TNFα response in mice with mastitis that were treated with peptidoglycan hydrolases. Data represents a minimum of 7 measurements in duplicate. Log TNFα was used for statistical analysis. Single asterisks indicate a significant difference from buffer control (p<0.05); double asterisks indicate a significant difference from the parental enzyme (p<0.05).
FIG. 7 depicts a turbidity reduction assay of select peptidoglycan hydrolases against S. aureus Newbould 305. Bacterial cells were resuspended in lysis buffer to an OD600nm of 1.0 and lysed with 1 μM final concentrations of each peptidoglycan hydrolase. The maximum rate of ΔOD of three experiments are represented as an average with error bars representing SEM. Double asterisks indicate significant difference from parental. Mean comparisons were performed with one way ANOVA (P=3.3×10^−5) with t test post hoc analysis with Sidák adjusted alpha (p<0.01).

S. aureus Newbould 305 [2] = assay: Murine model of mastitis, bacterial load; type: in vivo, C57BL6/SJL mice; settings: single 1.25 nmoles intramammary infusion 30 minutes post infection, 18 h
Procedure: as §1
To evaluate the efficacy of purified, individually administered peptidoglycan hydrolases in a murine model of bovine mastitis, female C57BL6/SJL mice were challenged by the intramammary route with 100 CFU S. aureus Newbould 305 in 50 μl buffer. A single 1.25 nmoles intramammary infusion of each desired peptidoglycan hydrolase (50 μl of a 25 μM solution) or 50 μl PBS was given 30 minutes post infection [with up to six glands treated per animal, each gland receiving a unique treatment] as described earlier (Schmelcher et al. 2012. Appl. Environ. Microbiol. 78:2297-2305; Kerr et al. 2001. Nat. Biotechnol. 19:66-70). Dams were euthanized 18 h post infusion, the mammary glands were aseptically dissected, and portions of the gland were used for determination of bacterial load and TNFα concentrations, as described previously (Schmelcher et al., supra).
Statistical analysis: The variables were analyzed as two-factor mixed models with Treatment as the factor and Mouse as random Blocks. This model […] within mouse correlations. Log(TNFα) was used. The variance grouping technique was used for log CFU and log TNFα to correct for variance heterogeneity. Means comparisons were done with Sidak adjusted p-values so that the experiment-wise error was 0.05. Log(TNFα) is back-transformed to the original units for graphing.

S. aureus strain ALR = assay: Rat nasal colonization model; type: in vivo, Wistar rats
Description: FIGS. 1a-1c depict peptidoglycan hydrolase construct schematics, resistance development and effectiveness in eradicating S. aureus carriage in a rat colonization model. FIG. 1a is a schematic of the peptidoglycan hydrolase constructs. Domains: CHAP endopeptidase (CHAP, red box); N-acetylmuramoyl-L-alanine amidase (AMID, green box); M23 endopeptidase (PEP, blue oval); CBDs (LysK SH3b, gold diamond; lysostaphin SH3b, gold diamond with dot); protein transduction domain (PTD, blue circle); hexahistidine purification tag (His6). Domains are not to scale. Specific peptidoglycan cut sites are illustrated in FIG. 3a. FIG. 1b depicts in vitro antimicrobial resistance development. Engineered triple fusions K-L and L-K suppress antimicrobial resistance development compared to LysK (K), lysostaphin (L), or a combination of equimolar concentrations of both (L+K). Changes in Minimum Inhibitory Concentrations (MIC) are depicted as a fold-change at the tenth round of sublethal exposure compared to the first exposure, with the average fold-change of 4 replicates in red. Error bars=SEM. First exposure MICs: Lysostaphin, 0.77 μg/ml (27 nM); LysK, 47 μg/ml (840 nM); Lysostaphin and LysK (L+K) in combination 0.2 μg/ml (7 nM and 3 nM, respectively); triple fusion K-L, 7 μg/ml (97 nM); triple fusion L-K, 7.8 μg/ml (107 nM). FIG. 1c depicts reduction in colonization in a rat nasal carriage model. Rats were inoculated with S. aureus strain ALR on Day 1. After 5 days, the rats were treated twice daily for 3 days with 20 μl of a 10 mg/ml solution of each enzyme. The rat noses were excised on day 10, homogenized, and quantitative cultures were performed. Each point represents the CFU recovered from an individual rat. Bars indicate the median CFU/nose recovered from treated rats. […] Data were compiled from five independent experiments. Lyso=commercially purchased lysostaphin (AMBI, Tarrytown, N.Y.). Statistical comparisons were made with the Mann-Whitney test. SEQ ID NOs of depicted peptidoglycan hydrolase constructs: Lysostaphin (SEQ ID NO:1); Lysostaphin-PTD1-4, 6-12 (SEQ ID NOs:9, 11, 13, 15, 17, 19, 21, 23, 25, 27, 29, respectively); LysK (SEQ ID NO:3); LysK-PTD1-11 (SEQ ID NOs: 31, 33, 35, 37, 39, 41, 43, 45, 47, 49, 51, respectively); LysK-Lysostaphin Fusion K-L (SEQ ID NO:5); K-L-PTD1-4, 6-11 (SEQ ID NOs:53, 55, 57, 59, 61, 63, 65, 67, 69, 71, respectively); Lysostaphin-LysK Fusion L-K (SEQ ID NO:7).
Reduction in nasal colonization was observed when rats were challenged on day 0 with 10^7 CFU S. aureus strain ALR and then treated twice per day on days 5, 6, and 7 with 10 μl of 2% mupirocin calcium ointment (Bactroban Nasal) or petrolatum/softisan placebo. Noses from rats were homogenized and cultured quantitatively on day 10. Each point represents the CFU recovered from an individual rat, and the data were compiled from two independent experiments. Data were analyzed by the Mann-Whitney test, and horizontal lines represent median values. Mupirocin reduced colonization ˜98% compared to the placebo control.
The rat nasal colonization model is an adaptation of the mouse nasal colonization model that we described previously (Schaffer et al. 2006. Infect. Immun. 74:2145-2153). All animal experiments were conducted in accordance with a protocol approved by the appropriate Institutional Animal Care and Use Committees. Wistar rats (5 to 6 wks of age) were obtained from Charles River Laboratories (Wilmington, Mass.) and given food and water ad libitum. The animals were housed two per cage in a modified barrier facility under viral antibody-free conditions. The rats were given drinking water containing streptomycin sulfate (0.5 g/liter; Sigma) 1 day prior to bacterial inoculation and for the course of the experiment. The drinking water and cages were changed three times per week. […]

S. aureus strain Newman = type: cell-based; settings: tenth round compared to first exposure
Procedure: For the MIC repeated exposure method, MIC determinations were performed with S. aureus strain Newman. 100 μl of S. aureus strain Newman culture that survived at ½ the MIC (the first well with visible growth) for each round was inoculated into 5 ml TSB and cultivated to mid-log phase growth. This culture was used as the inoculum for the next round of MIC exposure (overnight growth), and the cycle was repeated for 10 rounds.
Development of resistance to the triple-acting fusion enzymes was tested on S. aureus strain Newman and compared to both parental enzymes applied individually or simultaneously. […] Survivors of the ten round exposure to peptidoglycan hydrolase were passaged five times in medium with no peptidoglycan hydrolase added. […] We compared our triple-acting fusions to small molecule antibiotics in similar assays.

[3] = test system: intracellular S. aureus strain ISP479C in human brain microvascular endothelial cells (hBMEC); assay: Intracellular S. aureus eradication assay in hBMEC; type: cell-based; settings: 5 μg/ml, 1 h
Description: FIGS. 5a-5e depict peptidoglycan hydrolase-protein transduction domain (PGH-PTD) eradication of intracellular S. aureus in cultured cells. Cultured cells were infected, treated with gentamicin to kill extracellular S. aureus, and then treated with the peptidoglycan hydrolases indicated. All results are standardized to the gentamicin (GENT) only control. Nomenclature of the peptidoglycan hydrolase constructs is as in FIG. 1. Asterisks indicate statistical significance detected with single factor ANOVA (α=0.05) with paired t-test posthoc analyses α=0.05 adjusted with Sidák correction for multiple comparisons (for all cases p<0.01). […] Error bars represent SEM. […] Yellow staining in the combined panel represents intracellular co-localization (in a single plane as determined by z-stack analysis) of both S. aureus and K-L-PTD1 (blue arrow). […]
Three similar intracellular S. aureus eradication assays from three different labs were optimized for (A) a cultured bovine mammary epithelial cell line (MAC-T, Nexia Biotechnologies, Quebec, Canada; Almeida, supra), (B) primary C57BL/6 mouse-derived osteoblasts (mOBs) (McCall et al. 2008. J. Bone Miner. Res. 23: 30-40) or (C) human brain microvascular endothelial cells (hBMEC; Stins, supra). […] The cell lysate was subjected to serial dilution plating, and the resultant CFUs were counted and normalized to the gentamicin control for each assay. […]

L-PTD9: lysostaphin with PTD 9 (TAT 48-60); SEQ ID NO:23
turbidity reduction (in vitro lytic) activity (S. aureus Newbould 305 [1]): virtually inactive | turbidity reduction (in vitro lytic) activity (S. aureus Newbould 305 [1]; listed as 1-PTD9): reduced the in vitro activity | bacterial load / clearance of mammary glands (in words) (S. aureus Newbould 305 [2]): capable of reducing bacterial load within the mouse mammary glands relative to the PBS buffer control

C/C(=C\C(=O)OCCCCCCCCC(=O)O)C[C@@H]1OC[C@H](C[C@@H]2O[C@H]2[C@@H](C)[C@H](C)O)[C@@H](O)[C@H]1O [Mupirocin, mupirocin, reference compound]
reduction in nasal colonization compared to placebo control (S. aureus strain ALR; 10 μl of 2% mupirocin calcium ointment twice per day on days 5, 6, 7, separate experiment): 98%

[H]/N=C(/N)N[C@H]1[C@H](O)[C@@H](O)[C@H](O[C@@H]2O[C@@H](C)[C@](O)(C=O)[C@H]2O[C@@H]2O[C@@H](CO)[C@H](O)[C@@H](O)[C@@H]2NC)[C@@H](N/C(N)=N\[H])[C@@H]1O [streptomycin, reference compound]
increase in MIC after 10 rounds of sub-lethal exposure (S. aureus strain Newman): 13 fold

1-PTD12: lysostaphin with PTD 12 (TAT 49-57); SEQ ID NO:29
intracellular S. aureus CFUs relative to gentamicin only control [3]: reduce the intracellular S. aureus strain ISP479C

Trimethoprim/sulfamethoxazole [reference compound]
increase in MIC after 10 rounds of sub-lethal exposure (S. aureus strain Newman): 6 fold

lysostaphin (AMBI, Tarrytown, N.Y.): commercially purchased lysostaphin (AMBI, Tarrytown, N.Y.)
decrease in CFU/nose (nasal colonization) compared to rats treated with buffer (S. aureus strain ALR; 200 μg intranasally twice a day on days 5, 6, 7, noses cultured day 10): 87%

Reference: patent publication US20160097044A1, “Antimicrobial Enzyme Fusions Reduce Resistance and Kill Intracellular Staphylococcus aureus” (The United States of America, as Represented by the …, priority 2014, published 2016)
